Measured values: patent US11554084B2, “Compositions incorporating avobenzone-calix[8]-PO3H2 complex” (University of Cincinnati, priority 2020, dated 2023)

What was measured:
rat cell lines = details: cited from earlier work
human cell lines = details: cited from earlier work
[1] = Neutron reflectometry (NR) of tethered POPC / POPC-d31 lipid bilayer membranes incubated with the substance and after rinse; assay type: physicochemical; details: for Peak of avobenzone CVO from bilayer center / Surface volume density: co-refined POPC-d31 and POPC
Protocol: The interaction of avobenzone and calix[8]-PO3H2 was tested with single-membrane POPC (1-palmitoyl-2-oleoyl-sn-glycero-3-phosphocholine) tethered lipid bilayer membranes (tBLMs). Solvent-immersed tBLMs allowed for a characterization of the membrane before and after addition of avobenzone and calix[8]-PO3H2 from solution, thus mimicking the encounter of those substances by the membrane in the body. This differentiates tBLMs from conventionally used stacked lipid bilayer model systems in air. The chemical structure of the glycerophospholipid POPC consists of a zwitterionic phosphatidylcholine headgroup linked to a glycerol, which is ester-bound to two fatty acid groups—palmitic acid (C16:0) and oleic acid (C18:1). This fatty acid composition mimics that of phospholipids mainly found in the eukaryotic cell membrane, including keratinocytes. In addition to phospholipids, native eukaryotic membranes also contain glycolipids, sterols and various proteins, which are not included in the current simplified model system.
Neutron Reflectometry (NR) experiments were conducted with hydrogenated and deuterated POPC bilayers. Both data sets were simultaneously analyzed to obtain one structural model. NR measurements were performed with the CGD-Magik reflectometer at the NIST Center for Neutron Research (NCNR). Reflectivity curves were recorded for momentum transfer values 0.01≤qz≤0.25 Å^−1. For each measurement, adequate counting statistics were obtained after 5-7 h. The NCNR fluids cell allows for in situ solvent exchange; therefore, subsequent measurements were performed on the same sample area. The entire flow cell was maintained at room temperature (RT). Solvent exchange was accomplished by rinsing ˜10 ml of water through the cell (volume ˜1.3 ml) using a syringe.
A set of NR experiments was conducted with a hydrogenated POPC bilayer and another identical set of experiments with a deuterated POPC-d31 bilayer. After measurement of the as-prepared bilayer in H2O and D2O, avobenzone was added to the sample cell at a concentration of 100 μM dissolved in H2O and D2O. NR measurements were conducted while the bilayer was in contact with either solution. The sample was measured again after rinsing with H2O and D2O, respectively. Data for both bilayers were co-refined sharing conserved model parameters across data sets, in particular those associated with the volume profile of avobenzone. […] An identical set of measurements were performed with a 100 μM complex of 1:1 avobenzone:calix[8]-PO3H2 instead of pure avobenzone.
1D-component volume occupancy (CVO) profiles along the lipid bilayer normal were obtained. Bilayer fit parameters were the hydrocarbon thickness for each bilayer subsection, the bilayer completeness, and the thickness of the sub-membrane space. One roughness parameter was applied to all distributions. The thin layer of native silicon oxide was modelled by a single distribution with individual roughness and thickness parameters. Hermite splines defined by control points that were on average 15 Å apart were used to model the CVO profiles of avobenzone and calix[8]-PO3H2. The number of control points was iteratively refined during model optimization for each CVO profile. Fit parameters associated with each control point were a volume occupancy, a deviation from equidistant separation, and (for the CVO profile of the complex) a nSLD (neutron scattering length density) value between those of avobenzone and calix[8]-PO3H2. Such a variable nSLD per control point allowed us to separate individual CVO profiles for avobenzone (average nSLD ρ=1.37×10^−6 Å^−2) and calix[8]-PO3H2 (ρ=2.73×10^−6 […]). The exchange of labile protons in isotopically different buffers affects the nSLD of molecular components and was taken into account during data analysis. Optimization of model parameters was performed using the ga_refl and Refl1D software packages developed at the NCNR. […]

[2] = once exposed to sun; cited from earlier work
[3] = avobenzone alone, 100 μM incubation

| Peak of avobenzone CVO from bilayer center [1, 3] [Å] | Surface volume density [1, 3] [Å^3/Å^2] | Peak of avobenzone CVO from bilayer center ([1]; avobenzone alone, Rinse) [Å] | Surface volume density ([1]; avobenzone alone, Rinse) [Å^3/Å^2] | Compound | Toxicity towards rat cell lines (rat cell lines) | Toxicity towards human cell lines (human cell lines) | 1 avobenzone per n lipids in outer leaflet ([1]; avobenzone alone, Rinse) | Penetration of the lipid bilayer (in words) ([1]; interacts at hydrocarbon/headgroup interface of the substrate-distal leaflet) | Duration of photoprotection [2] [min] |
| --- | --- | --- | --- | --- | --- | --- | --- | --- | --- |
| – | – | – | – | O=P(O)(O)c1cc2c(O)c(c1)Cc1cc(P(=O)(O)O)cc(c1O)Cc1cc(P(=O)(O)O)cc(c1O)Cc1cc(P(=O)(O)O)cc(c1O)Cc1cc(P(=O)(O)O)cc(c1O)Cc1cc(P(=O)(O)O)cc(c1O)Cc1cc(P(=O)(O)O)cc(c1O)Cc1cc(P(=O)(O)O)cc(c1O)C2 [calix[8]-PO3H2, p-phosphonated calix[8]arene] | non-toxic | non-toxic | – | – | – |
| 10±3 | 3.0±0.5 | 7±3 | 3.8±0.4 | COc1ccc(C(=O)CC(=O)c2ccc(C(C)(C)C)cc2)cc1 [avobenzone, 1-(4-methoxyphenyl)-3-(4-tertbutylphenyl)-propane-1,3-dione] | – | – | ~1 avobenzone per 2.1 lipids in outer leaflet | without penetrating the bilayer to the substrate-proximal leaflet | 30 |
